Reference: US20080085882A1, “Compositions and Methods for Potentiation of Cancer Agents” (priority 2006, published 2008)
Entries after “also recorded” stand apart in the source; their conditions may differ.

Key:
[1] = tested on: cisplatin resistant ovarian cancer cells (2008/IC3); test: MTS cell survival, cisplatin plus NSC109268; type: cell-based, human
Experimental: (§1) Based on the cisplatin result in yeast, the inventors explored if a similar effect can be detected in human cells. […] Survival was determined in the presence or absence of compound NSC109268 using Cell Titer 96 Aqueous Cell Proliferation Assay kit from Promega, Madison, Wis. All cultures, unless specified otherwise, were maintained in growth medium composed of RPMI with 2 mM L-glutamine, 100 units/ml of Penicillin, and 100 μg/ml Streptomycin, supplemented with 10% fetal bovine serum under a humidified atmosphere of 95% air, 5% CO2 at 37° C. Briefly, cells were plated in 96-well tissue culture plates at 5-8×10^3 cells/well and allowed to attach overnight in growth medium. The following day, cells were rinsed twice in DMEM and further incubated in serum-free medium for 24 h. Cells were then treated with cisplatin [0-100 μM] in the presence of NSC109268 [0, 1, 2, 3 μM] for 48 h. Dose-response studies were initially done to determine appropriate dosages for the drugs and their vehicles. Negative controls involved the use of DMF, vehicle for cisplatin (˜0 μM) or DMSO, vehicle for NSC109268 (˜0 μM). […] MTS is taken up by live cells where it is reduced by the dehydrogenase enzymes and released back into the culture medium as a yellow formazan product. The amount of formazan product measured in terms of absorbances is directly proportional to the number of live cells in the cultures. Thus, absorbance readings at 490 nm were taken after 1 h and converted to cell numbers based on standard curves. Standard curves were done using cells maintained in RPMI in 96-well plates at the same time. Experiments were done in triplicate wells at least 4 times. Statistical analyses were done using ANOVA. […] Several series of studies were conducted using DMF (solvent control=0) and various concentrations of cisplatin in combination with (DMSO (solvent control=0), 1 μM NSC1092682 μM NSC109268, and 3 μM NSC109268. Survival was plotted in a logarithmic scale against cisplatin dose, with different symbols indicating the amount of added NSC109268 (see FIG. 1A insert), for the RWPE-1 normal prostate cell line (FIG. 1A), PC3 prostate cancer cells (FIG. 1B), cisplatin-sensitive ovarian cancer cells (2008) (FIG. 1C) and cisplatin-resistant ovarian cancer cells (2008/IC3) (FIG. 1D).

[2] = tested on: WT strain BY4741; test: cisplatin/NSC combination treatments, fraction of colony forming cells; type: cell-based, yeast; details: 2 hours at 30° C. in water
Experimental: This enhancement of cisplatin sensitivity by NSC109268 was quantified. We also tested the chemically related compound NSC 109272. Cells of a logarithmic-phase culture of WT strain BY4741 were incubated for 2 hours at 30° C. in water containing the combinations of NSC109268 or NSC109272 and cisplatin shown in Table 2. The fraction of colony forming cells was determined on solid YPD medium.

[3] = tested on: PC3 prostate adenocarcinoma cells; test: MTS cell survival, cisplatin plus NSC109268; type: cell-based, human
Experimental: as §1

[4] = tested on: wild-type yeast; test: sensitivity towards DNA damaging agents, survival of macrocolony forming cells, wild type; type: cell-based; parameters: key: +: increased resistance; −: decreased resistance; details: strain WT
Experimental: (§2) As another example, the drug streptonigrin was used as a double-strand break inducing drug. After treatment of logarithmically growing yeast cultures for 1 h at 30° C. in YPD medium (1% yeast extract, 2% peptone, 2% dextrose), lethality was measured by inability of colony formation on YPD agar plates. […] The used concentration of 50-100 μg/ml results in 80% survival after 1 h incubation.
(§3) In summary, the incubation of logarithmic phase cells of wild-type yeast and a double-strand break repair deficient derivative (rad51) (Amberg, D. C., D. J. Burke, and J. N. Strathern. 2005. Methods in Yeast Genetics: A Cold Spring Harbor Laboratory Course Manual, 2005 Edition. Cold Spring Harbor Laboratory Press, Cold Spring Harbor, N.Y.) with compound NSC109268 had the following effects on sensitivity towards DNA damaging agents, measured as survival of macrocolony forming cells (+increased resistance, −decreased resistance, ND not determined): Table 1 summarizes the effects of NSC109268 on senstivity towards DNA Damaging Agents in repair-proficient wild type and rad 51^− cells.

[5] = tested on: yeast cultures; test: lethality of logarithmically growing yeast cultures, colony formation on YPD agar; type: cell-based
[6] = tested on: cisplatin sensitive ovarian cancer cells (2008); test: MTS cell survival, cisplatin plus NSC109268; type: cell-based, human; details: cisplatin 0-100 μM, NSC109268 0-3 μM, 48 h
Experimental: Based on the cisplatin result in yeast, the inventors explored if a similar effect can be detected in human cells. […] Survival was determined in the presence or absence of compound NSC109268 using Cell Titer 96 Aqueous Cell Proliferation Assay kit from Promega, Madison, Wis. All cultures, unless specified otherwise, were maintained in growth medium composed of RPMI with 2 mM L-glutamine, 100 units/ml of Penicillin, and 100 μg/ml Streptomycin, supplemented with 10% fetal bovine serum under a humidified atmosphere of 95% air, 5% CO2 at 37° C.
Briefly, cells were plated in 96-well tissue culture plates at 5-8×10^3 cells/well and allowed to attach overnight in growth medium. The following day, cells were rinsed twice in DMEM and further incubated in serum-free medium for 24 h. Cells were then treated with cisplatin [0-100 μM] in the presence of NSC109268 [0, 1, 2, 3 μM] for 48 h. […]
To determine the number of surviving cells, cells were incubated in 333 μg/ml MTS [3-(4,5-dimethylthiazol-2-yl)-5-(3-carboxymethoxyphenyl)-2-(4-sulfophenyl)-2H-tetrazolium], a tetrazolium salt, and 25 μM phenazine methosulfate (PMS), an electron coupling reagent. […] The amount of formazan product measured in terms of absorbances is directly proportional to the number of live cells in the cultures. Thus, absorbance readings at 490 nm were taken after 1 h and converted to cell numbers based on standard curves. […]

[7] = tested on: double-strand break repair deficient derivative (rad51) yeast; test: sensitivity towards DNA damaging agents, survival of macrocolony forming cells, rad51; type: cell-based; parameters: key: +: increased resistance; −: decreased resistance; details: strain rad51
Experimental: as §2, §3

[8] = tested on: checkpoint activation (DNA-damage-induced interaction between two selected checkpoint proteins); test: two-hybrid assay-based yeast screen for agents that modify cell cycle checkpoint activation; details: in response to the topoisomerase I inhibitor camptothecin
Experimental: A two-hybrid assay-based yeast system was used to screen small-molecule compound libraries for agents that modify cell cycle checkpoint activation. Checkpoint activation is measured as the DNA-damaged-induced increased interaction between two selected checkpoint proteins.

[9] = tested on: yeast cultures; test: lethality of logarithmically growing yeast cultures, colony formation on YPD agar; type: cell-based; remark: listed apart in the source
Experimental: as §2
Curiously, the opposite effect was found for other agents such hydrogen peroxide (H2O2), an oxidative agent causing base damage and strand breaks.

[10] = cisplatin 0-100 μM, NSC109268 0-3 μM, 48 h
[11] = compared to cisplatin-sensitive cells (2008)

In the case of `N.N.[Cl][Pt][Cl]` [Cisplatin, cis-Diammineplatinum (II) dichloride, reference compound], the survival ([1]; 5 μM of cisplatin without any added NSC109268, 48 h) is reported as 85%, the “cell survival (fraction of colony forming cells)” value ([2]; 33 μM Cisplatin alone) is reported as 71% and the “cell survival (fraction of colony forming cells)” value ([2]; 82.5 μM Cisplatin alone) is reported as 44.5%. The “cell survival (fraction of colony forming cells)” value ([2]; 165 μM Cisplatin alone) was 21%.
With “Copper, di-μ-chlorobis[1-[(1-piperidinyl-κN)methyl]-2-naphthalenolato-κO]di-(9CI) [NSC109268]” the survival ([1]; 2 μM NSC109268 without any cisplatin, 48 h) was 38%, the measured survival ([1]; 5 μM cisplatin/2 μM combination treatment, 48 h) was 4.5% and the “survival expected if the effects were independent” value ([1]; 5 μM cisplatin/2 μM combination treatment, 85% of 38%) was 32%. The “effect of combination with cisplatin on survival” value (“effect of combination” for short) [1, 10] was “synergistically enhanced”, the “enhancement effect on cisplatin” value [1, 11] was “much more pronounced” and the “toxicity without added cisplatin” value [1, 11] was “much more toxic”. For the same compound, the “effect of combination” value [3, 10] was “synergistically enhanced; also recorded: increases cellular sensitivity to cisplatin”, the “toxicity of NSC109268 alone” value ([3]; range of concentrations that increases sensitivity to cisplatin) was “(virtually) non-toxic” and the “cell survival (fraction of colony forming cells)” value ([2]; NSC109268 7.4 nM + 33 μM Cisplatin) was 29%. For the same compound, the “cell survival (fraction of colony forming cells)” value ([2]; NSC109268 7.4 nM + 82.5 μM Cisplatin) was 25.5%, the “cell survival (fraction of colony forming cells)” value ([2]; NSC109268 7.4 nM + 165 μM Cisplatin) was 0.09% and the “cell survival (fraction of colony forming cells)” value ([2]; NSC109268 7.4 nM, 0 μM Cisplatin) was 79.5%. For the same compound, the “cell survival (fraction of colony forming cells)” value ([2]; NSC109268 37 nM + 165 μM Cisplatin) was less than 0.4%, the “cell survival (fraction of colony forming cells)” value ([2]; NSC109268 37 nM, 0 μM Cisplatin) was 10% and the “effect on sensitivity towards DNA damaging agent” value ([4]; Cisplatin) was “−”. The “effect on sensitivity towards DNA damaging agent” value ([4]; MNNG) was “+”, the “effect on sensitivity towards DNA damaging agent” value ([4]; Streptonigrin) was “+” and the “effect on sensitivity to DNA damaging agent” value (“effect … to DNA damaging agent” below) ([5]; alkylating agent (MMS)) was “does not seem to affect sensitivity”. For the same compound, the “effect on lethality of DNA damaging agent” value ([5]; ionizing radiation (137Cs γ-radiation)) was “less significantly”, the “effect … to DNA damaging agent” value ([5]; phleomycin) was “does not seem to affect sensitivity” and the “effect … to DNA damaging agent” value ([5]; ultraviolet radiation (UV-C)) was “does not seem to affect sensitivity”. For the same compound, the “effect of combination” value [6] was “synergistically enhanced”, the “effect on sensitivity towards DNA damaging agent” value ([7]; Cisplatin) was “−” and the “effect on sensitivity towards DNA damaging agent” value ([7]; Ionizing radiation (137Cs)) was “+”. For the same compound, the “effect on sensitivity towards DNA damaging agent” value ([7]; Phleomycin) was “+”, the “effect on checkpoint activation” value [8] was “interfere with checkpoint activation” and the survival ([9]; compound itself, 50-100 μg/ml, 1 h incubation) was 80%. The “effect … to DNA damaging agent” value ([9]; hydrogen peroxide (H2O2), simultaneous exposure) was “sensitivity is enhanced”, the “effect on lethality of DNA damaging agent” value ([9]; streptonigrin, 1 h at 30° C. in YPD medium) was “protective effect” and the “toxicity of the compound itself” value ([9]; yeast, 1 h at 30° C. in YPD medium) was “moderate toxicity”.
For “Copper, di-μ-chlorobis[1-[(4-morpholinyl-κN4)methyl]-2-naphthalenolato-κO]di-(9CI) [NSC109272]”, the “cell survival (fraction of colony forming cells)” value ([2]; NSC109272 1.5 nM + 165 μM Cisplatin) was 4% and the “cell survival (fraction of colony forming cells)” value ([2]; NSC109272 1.5 nM, 0 μM Cisplatin) was 70%.
